Data reported in the NIST ThermoML archive (doi:10.1021/je049762q).
Numbers after ± are expanded uncertainties.

Assay: molar heat capacity at constant pressure
Conditions: 101.33 kPa

Brc1ccc(Br)cc1 [1,4-dibromobenzene]
molar heat capacity at constant pressure [J/K/mol]
Conditions	Crystal	Liquid
5.27 K	1.01 ± 0.04	–
5.8 K	1.18 ± 0.04	–
6.45 K	1.36 ± 0.05	–
6.5 K	1.38 ± 0.05	–
7.46 K	2.31 ± 0.06	–
7.64 K	2.66 ± 0.07	–
7.71 K	2.81 ± 0.07	–
8.52 K	3.67 ± 0.08	–
8.77 K	3.87 ± 0.08	–
9.03 K	4.08 ± 0.09	–
9.52 K	4.41 ± 0.09	–
10 K	5.01 ± 0.1	–
10.07 K	5.11 ± 0.1	–
10.26 K	5.43 ± 0.11	–
10.6 K	5.83 ± 0.11	–
11.8 K	6.63 ± 0.12	–
12.15 K	7.18 ± 0.13	–
12.41 K	7.69 ± 0.13	–
12.47 K	7.8 ± 0.14	–
13.6 K	9.64 ± 0.16	–
14.05 K	10.68 ± 0.17	–
14.2 K	10.78 ± 0.17	–
15 K	12.33 ± 0.19	–
15.55 K	13.29 ± 0.2	–
15.57 K	13.3 ± 0.2	–
15.9 K	13.84 ± 0.2	–
16.68 K	14.94 ± 0.21	–
17.46 K	16.03 ± 0.22	–
17.68 K	16.47 ± 0.22	–
17.94 K	16.83 ± 0.23	–
18.59 K	17.79 ± 0.23	–
19.73 K	19.51 ± 0.24	–
20 K	19.9 ± 0.24	–
20.25 K	20.25 ± 0.25	–
22.16 K	22.72 ± 0.25	–
22.64 K	23.37 ± 0.26	–
23.84 K	25.08 ± 0.26	–
24.7 K	25.82 ± 0.26	–
25 K	26.17 ± 0.26	–
26.55 K	28 ± 0.25	–
27.15 K	28.54 ± 0.25	–
28.82 K	30.45 ± 0.24	–
29.32 K	30.8 ± 0.24	–
30 K	31.55 ± 0.21	–
31.01 K	32.68 ± 0.21	–
31.27 K	32.7 ± 0.21	–
33.06 K	34.41 ± 0.22	–
33.29 K	34.82 ± 0.22	–
35.63 K	36.98 ± 0.23	–
38.01 K	38.95 ± 0.24	–
40 K	40.38 ± 0.24	–
40.43 K	40.7 ± 0.24	–
42.9 K	42.52 ± 0.25	–
45.4 K	44.29 ± 0.26	–
47.94 K	45.99 ± 0.26	–
50 K	47.3 ± 0.27	–
50.51 K	47.61 ± 0.27	–
53.12 K	49.13 ± 0.28	–
55.75 K	50.72 ± 0.28	–
58.41 K	52.22 ± 0.29	–
60 K	53.1 ± 0.29	–
61.09 K	53.7 ± 0.3	–
63.8 K	55.15 ± 0.3	–
66.54 K	56.56 ± 0.31	–
69.3 K	57.98 ± 0.31	–
70 K	58.33 ± 0.31	–
72.07 K	59.33 ± 0.32	–
74.86 K	60.72 ± 0.32	–
77.68 K	62.03 ± 0.33	–
80 K	63.11 ± 0.33	–
80.51 K	63.35 ± 0.33	–
83.36 K	64.67 ± 0.34	–
86.22 K	65.91 ± 0.34	–
89.08 K	67.21 ± 0.35	–
89.28 K	67.47 ± 0.35	–
90 K	67.83 ± 0.54	–
91.9 K	68.39 ± 0.54	–
92.15 K	68.67 ± 0.54	–
94.65 K	69.5 ± 0.54	–
95.04 K	69.84 ± 0.54	–
97.35 K	70.59 ± 0.54	–
97.94 K	71.11 ± 0.54	–
100 K	71.7 ± 0.54	–
100.85 K	72.3 ± 0.54	–
102.59 K	72.97 ± 0.55	–
103.77 K	73.61 ± 0.55	–
105.15 K	73.98 ± 0.55	–
106.7 K	74.69 ± 0.55	–
109.64 K	75.86 ± 0.55	–
110 K	76 ± 0.55	–
112.58 K	77.06 ± 0.55	–
115.54 K	78.22 ± 0.56	–
118.5 K	79.39 ± 0.56	–
120 K	79.98 ± 0.56	–
121.46 K	80.54 ± 0.56	–
124.44 K	81.71 ± 0.56	–
127.42 K	82.85 ± 0.57	–
130 K	83.85 ± 0.57	–
130.4 K	84.01 ± 0.57	–
133.39 K	85.14 ± 0.57	–
136.39 K	86.25 ± 0.57	–
139.39 K	87.37 ± 0.57	–
140 K	87.59 ± 0.58	–
142.39 K	88.47 ± 0.58	–
145.4 K	89.57 ± 0.58	–
148.41 K	90.66 ± 0.58	–
150 K	91.25 ± 0.58	–
151.43 K	91.77 ± 0.58	–
154.45 K	92.84 ± 0.59	–
157.47 K	93.92 ± 0.59	–
160 K	94.86 ± 0.59	–
160.49 K	95.04 ± 0.59	–
163.52 K	96.13 ± 0.59	–
166.54 K	97.21 ± 0.59	–
169.55 K	98.29 ± 0.6	–
170 K	98.46 ± 0.6	–
172.58 K	99.4 ± 0.6	–
175.6 K	100.5 ± 0.6	–
178.62 K	101.59 ± 0.6	–
180 K	102.09 ± 0.6	–
181.65 K	102.69 ± 0.61	–
184.69 K	103.79 ± 0.61	–
187.72 K	104.9 ± 0.61	–
190 K	105.74 ± 0.61	–
190.75 K	106.01 ± 0.61	–
193.79 K	107.09 ± 0.61	–
196.83 K	108.2 ± 0.62	–
199.86 K	109.24 ± 0.62	–
200 K	109.29 ± 0.62	–
202.9 K	110.27 ± 0.62	–
205.94 K	111.41 ± 0.62	–
208.97 K	112.54 ± 0.63	–
210 K	112.91 ± 0.63	–
212.01 K	113.63 ± 0.63	–
215.05 K	114.77 ± 0.63	–
218.09 K	115.88 ± 0.63	–
220 K	116.57 ± 0.63	–
221.12 K	116.98 ± 0.63	–
224.16 K	118.12 ± 0.64	–
227.19 K	119.19 ± 0.64	–
230 K	120.22 ± 0.64	–
230.23 K	120.31 ± 0.64	–
233.27 K	121.42 ± 0.64	–
236.31 K	122.55 ± 0.65	–
239.34 K	123.69 ± 0.65	–
240 K	123.94 ± 0.65	–
242.38 K	124.8 ± 0.65	–
245.41 K	125.94 ± 0.65	–
248.44 K	127.13 ± 0.65	–
250 K	127.69 ± 0.66	–
251.48 K	128.22 ± 0.66	–
254.52 K	129.34 ± 0.66	–
257.56 K	130.47 ± 0.66	–
260 K	131.36 ± 0.66	–
260.6 K	131.58 ± 0.66	–
263.64 K	132.68 ± 0.67	–
266.67 K	133.83 ± 0.67	–
269.71 K	134.94 ± 0.67	–
270 K	135.04 ± 0.67	–
272.74 K	136.06 ± 0.67	–
275.78 K	137.2 ± 0.67	–
278.81 K	138.23 ± 0.68	–
280 K	138.63 ± 0.68	–
281.84 K	139.24 ± 0.68	–
284.87 K	140.31 ± 0.68	–
287.9 K	141.45 ± 0.68	–
290 K	142.24 ± 0.68	–
290.93 K	143.08 ± 0.69	–
292.89 K	143.33 ± 0.69	–
293.96 K	143.64 ± 0.69	–
295.8 K	144.5 ± 0.69	–
296.99 K	144.79 ± 0.69	–
298.15 K	145.34 ± 0.69	–
298.79 K	145.71 ± 0.69	–
300 K	145.97 ± 0.69	–
300.02 K	145.98 ± 0.69	–
301.84 K	146.94 ± 0.69	–
303.03 K	147.07 ± 0.69	–
304.88 K	148.06 ± 0.7	–
306.05 K	148.21 ± 0.7	–
307.92 K	149.18 ± 0.7	–
309.07 K	149.34 ± 0.7	–
310 K	149.79 ± 0.7	–
310.96 K	150.23 ± 0.7	–
312.09 K	150.47 ± 0.7	–
314 K	151.06 ± 0.7	–
317.04 K	152.02 ± 0.7	–
320 K	153.12 ± 0.71	–
320.07 K	153.14 ± 0.71	–
323.1 K	154.4 ± 0.71	–
326.13 K	155.58 ± 0.71	–
329.16 K	156.76 ± 0.71	–
330 K	157.09 ± 0.71	–
332.19 K	157.97 ± 0.72	–
335.22 K	159.26 ± 0.72	–
338.24 K	160.5 ± 0.72	–
340 K	161.27 ± 0.72	–
341.26 K	161.81 ± 0.72	–
344.28 K	163.16 ± 0.73	–
347.3 K	164.65 ± 0.73	–
350 K	166.05 ± 0.73	–
350.32 K	166.28 ± 0.73	–
360 K	171.43 ± 0.74	–
360.48 K	171.7 ± 0.74	190.38 ± 0.78
362.85 K	–	190.92 ± 0.78
363.89 K	–	191.22 ± 0.78
365.71 K	–	191.62 ± 0.78
366.91 K	–	191.91 ± 0.78
368.72 K	–	192.27 ± 0.78
369.93 K	–	192.55 ± 0.79
370 K	–	192.57 ± 0.78
371.72 K	–	192.9 ± 0.79
372.94 K	–	193.22 ± 0.79
374.79 K	–	193.57 ± 0.79
377.7 K	–	194.15 ± 0.79
380 K	–	194.61 ± 0.79
380.68 K	–	194.75 ± 0.79
